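Cells were grown in 96-well plates and exposed to each compound for 48 hours at five concentrations; endpoints were interpolated linearly between bracketing concentrations, or set to the highest concentration if not reached. The concentration for full growth arrest is given as TGI.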
Legend:
Test in all cases: growth of human tumour cells (NCI), 48 h
SF-295 CNS = tested on: SF-295 CNS
UO-31 renal = tested on: UO-31 renal
SNB-75 CNS = tested on: SNB-75 CNS
NCI-H522 lung = tested on: NCI-H522 lung
OVCAR-8 ovarian = tested on: OVCAR-8 ovarian
COLO 205 colon = tested on: COLO 205 colon
T-47D breast = tested on: T-47D breast
DU-145 prostate = tested on: DU-145 prostate
HOP-92 NSCLC = tested on: HOP-92 NSCLC
LOX IMVI melanoma = tested on: LOX IMVI melanoma
RPMI-8226 leukemia = tested on: RPMI-8226 leukemia
HOP-62 NSCLC = tested on: HOP-62 NSCLC
SR leukemia = tested on: SR leukemia
NCI-H226 lung = tested on: NCI-H226 lung
UACC-62 melanoma = tested on: UACC-62 melanoma
MDA-MB-435 = tested on: MDA-MB-435
UACC-257 melanoma = tested on: UACC-257 melanoma
MOLT-4 leukemia = tested on: MOLT-4 leukemia
M14 melanoma = tested on: M14 melanoma
CCRF-CEM leukemia = tested on: CCRF-CEM leukemia
MDA-N = tested on: MDA-N
BT-549 breast = tested on: BT-549 breast
A549 NSCLC = tested on: A549 NSCLC
OVCAR-3 ovarian = tested on: OVCAR-3 ovarian
SW-620 colon = tested on: SW-620 colon
NCI-H460 lung = tested on: NCI-H460 lung
786-0 renal = tested on: 786-0 renal
HCC-2998 colon = tested on: HCC-2998 colon
RXF 393 renal = tested on: RXF 393 renal
NCI-H23 lung = tested on: NCI-H23 lung
KM12 colon = tested on: KM12 colon
OVCAR-4 ovarian = tested on: OVCAR-4 ovarian
NCI/ADR-RES ovarian = tested on: NCI/ADR-RES ovarian
SN12C renal = tested on: SN12C renal
TK-10 renal = tested on: TK-10 renal
SK-MEL-28 melanoma = tested on: SK-MEL-28 melanoma
EKVX NSCLC = tested on: EKVX NSCLC
U251 CNS = tested on: U251 CNS
K-562 leukemia = tested on: K-562 leukemia
HCT-116 colon = tested on: HCT-116 colon
SK-OV-3 ovarian = tested on: SK-OV-3 ovarian
HCT-15 colon = tested on: HCT-15 colon
MCF7 breast = tested on: MCF7 breast
HT29 colon = tested on: HT29 colon
HS 578T breast = tested on: HS 578T breast
SNB-19 CNS = tested on: SNB-19 CNS
PC-3 prostate = tested on: PC-3 prostate
HL-60(TB) leukemia = tested on: HL-60(TB) leukemia
SF-539 CNS = tested on: SF-539 CNS
ACHN renal = tested on: ACHN renal
A498 renal = tested on: A498 renal
MALME-3M melanoma = tested on: MALME-3M melanoma
IGROV1 ovarian = tested on: IGROV1 ovarian
SK-MEL-5 melanoma = tested on: SK-MEL-5 melanoma
MDA-MB-231 breast = tested on: MDA-MB-231 breast
SF-268 CNS = tested on: SF-268 CNS
CAKI-1 renal = tested on: CAKI-1 renal
OVCAR-5 ovarian = tested on: OVCAR-5 ovarian

Structure (SMILES): CCCCN(C(=O)c1ccccc1)C1CCC(=O)c2[nH]c3ccccc3c21 (configuration not stated)
- TGI (SF-295 CNS): > 100 µM
- TGI (UO-31 renal): > 100 µM
- TGI (SNB-75 CNS): 75.2 µM
- TGI (NCI-H522 lung): > 100 µM
- TGI (OVCAR-8 ovarian): > 100 µM
- TGI (COLO 205 colon): 48.1 µM
- TGI (T-47D breast): 89.9 µM
- TGI (DU-145 prostate): > 100 µM
- TGI (HOP-92 NSCLC): 84.5 µM
- TGI (LOX IMVI melanoma): > 100 µM
- TGI (RPMI-8226 leukemia): 68.8 µM
- TGI (HOP-62 NSCLC): > 100 µM
- TGI (SR leukemia): 41.4 µM
- TGI (NCI-H226 lung): 93.4 µM
- TGI (UACC-62 melanoma): > 100 µM
- TGI (MDA-MB-435): > 100 µM
- TGI (UACC-257 melanoma): > 100 µM
- TGI (MOLT-4 leukemia): > 100 µM
- TGI (M14 melanoma): > 100 µM
- TGI (CCRF-CEM leukemia): > 100 µM
- TGI (MDA-N): > 100 µM
- TGI (BT-549 breast): > 100 µM
- TGI (A549 NSCLC): > 100 µM
- TGI (OVCAR-3 ovarian): > 100 µM
- TGI (SW-620 colon): > 100 µM
- TGI (NCI-H460 lung): > 100 µM
- TGI (786-0 renal): > 100 µM
- TGI (HCC-2998 colon): > 100 µM
- TGI (RXF 393 renal): 70 µM
- TGI (NCI-H23 lung): > 100 µM
- TGI (KM12 colon): > 100 µM
- TGI (OVCAR-4 ovarian): > 100 µM
- TGI (NCI/ADR-RES ovarian): > 100 µM
- TGI (SN12C renal): > 100 µM
- TGI (TK-10 renal): > 100 µM
- TGI (SK-MEL-28 melanoma): > 100 µM
- TGI (EKVX NSCLC): > 100 µM
- TGI (U251 CNS): > 100 µM
- TGI (K-562 leukemia): > 100 µM
- TGI (HCT-116 colon): > 100 µM
- TGI (SK-OV-3 ovarian): > 100 µM
- TGI (HCT-15 colon): > 100 µM
- TGI (MCF7 breast): > 100 µM
- TGI (HT29 colon): > 100 µM
- TGI (HS 578T breast): 51.2 µM
- TGI (SNB-19 CNS): > 100 µM
- TGI (PC-3 prostate): > 100 µM
- TGI (HL-60(TB) leukemia): 29.6 µM
- TGI (SF-539 CNS): > 100 µM
- TGI (ACHN renal): > 100 µM
- TGI (A498 renal): > 100 µM
- TGI (MALME-3M melanoma): > 100 µM
- TGI (IGROV1 ovarian): > 100 µM
- TGI (SK-MEL-5 melanoma): 49.9 µM
- TGI (MDA-MB-231 breast): > 100 µM
- TGI (SF-268 CNS): > 100 µM
- TGI (CAKI-1 renal): 84 µM

Structure (SMILES): CCOC(=O)c1nc2cc(C(F)(F)F)ccc2nc1Nc1ccc(OC)c(OC)c1
- TGI (SF-295 CNS): > 100 µM
- TGI (UO-31 renal): > 100 µM
- TGI (SNB-75 CNS): > 100 µM
- TGI (NCI-H522 lung): > 100 µM
- TGI (OVCAR-8 ovarian): > 100 µM
- TGI (COLO 205 colon): > 100 µM
- TGI (T-47D breast): > 100 µM
- TGI (DU-145 prostate): > 100 µM
- TGI (HOP-92 NSCLC): > 100 µM
- TGI (LOX IMVI melanoma): > 100 µM
- TGI (RPMI-8226 leukemia): > 100 µM
- TGI (HOP-62 NSCLC): > 100 µM
- TGI (SR leukemia): > 100 µM
- TGI (UACC-62 melanoma): > 100 µM
- TGI (MDA-MB-435): > 100 µM
- TGI (UACC-257 melanoma): > 100 µM
- TGI (MOLT-4 leukemia): > 100 µM
- TGI (M14 melanoma): > 100 µM
- TGI (CCRF-CEM leukemia): > 100 µM
- TGI (MDA-N): > 100 µM
- TGI (BT-549 breast): > 100 µM
- TGI (A549 NSCLC): > 100 µM
- TGI (OVCAR-3 ovarian): > 100 µM
- TGI (OVCAR-5 ovarian): > 100 µM
- TGI (SW-620 colon): > 100 µM
- TGI (NCI-H460 lung): > 100 µM
- TGI (786-0 renal): > 100 µM
- TGI (HCC-2998 colon): > 100 µM
- TGI (RXF 393 renal): > 100 µM
- TGI (NCI-H23 lung): > 100 µM
- TGI (KM12 colon): > 100 µM
- TGI (NCI/ADR-RES ovarian): > 100 µM
- TGI (SN12C renal): > 100 µM
- TGI (TK-10 renal): > 100 µM
- TGI (SK-MEL-28 melanoma): > 100 µM
- TGI (EKVX NSCLC): > 100 µM
- TGI (K-562 leukemia): > 100 µM
- TGI (HCT-116 colon): > 100 µM
- TGI (SK-OV-3 ovarian): > 100 µM
- TGI (HCT-15 colon): > 100 µM
- TGI (MCF7 breast): > 100 µM
- TGI (HT29 colon): > 100 µM
- TGI (HS 578T breast): > 100 µM
- TGI (SNB-19 CNS): > 100 µM
- TGI (PC-3 prostate): > 100 µM
- TGI (HL-60(TB) leukemia): > 100 µM
- TGI (SF-539 CNS): > 100 µM
- TGI (ACHN renal): > 100 µM
- TGI (A498 renal): > 100 µM
- TGI (MALME-3M melanoma): > 100 µM
- TGI (IGROV1 ovarian): > 100 µM
- TGI (SK-MEL-5 melanoma): > 100 µM
- TGI (MDA-MB-231 breast): > 100 µM
- TGI (SF-268 CNS): > 100 µM
- TGI (CAKI-1 renal): > 100 µM

Structure (SMILES): CC(=O)NC(Cc1cnc[nH]1)C(=O)N1CCCC1C(N)=O (configuration not stated)
- TGI (SF-295 CNS): > 100 µM
- TGI (UO-31 renal): > 100 µM
- TGI (SNB-75 CNS): > 100 µM
- TGI (NCI-H522 lung): > 100 µM
- TGI (OVCAR-8 ovarian): > 100 µM
- TGI (COLO 205 colon): > 100 µM
- TGI (T-47D breast): > 100 µM
- TGI (DU-145 prostate): > 100 µM
- TGI (HOP-92 NSCLC): > 100 µM
- TGI (LOX IMVI melanoma): > 100 µM
- TGI (RPMI-8226 leukemia): > 100 µM
- TGI (HOP-62 NSCLC): > 100 µM
- TGI (SR leukemia): > 100 µM
- TGI (NCI-H226 lung): > 100 µM
- TGI (UACC-62 melanoma): > 100 µM
- TGI (MDA-MB-435): > 100 µM
- TGI (MOLT-4 leukemia): > 100 µM
- TGI (M14 melanoma): > 100 µM
- TGI (CCRF-CEM leukemia): > 100 µM
- TGI (MDA-N): > 100 µM
- TGI (BT-549 breast): > 100 µM
- TGI (A549 NSCLC): > 100 µM
- TGI (OVCAR-3 ovarian): > 100 µM
- TGI (OVCAR-5 ovarian): > 100 µM
- TGI (SW-620 colon): > 100 µM
- TGI (NCI-H460 lung): > 100 µM
- TGI (786-0 renal): > 100 µM
- TGI (HCC-2998 colon): > 100 µM
- TGI (RXF 393 renal): > 100 µM
- TGI (NCI-H23 lung): > 100 µM
- TGI (KM12 colon): > 100 µM
- TGI (OVCAR-4 ovarian): > 100 µM
- TGI (NCI/ADR-RES ovarian): > 100 µM
- TGI (SN12C renal): > 100 µM
- TGI (TK-10 renal): > 100 µM
- TGI (SK-MEL-28 melanoma): > 100 µM
- TGI (EKVX NSCLC): > 100 µM
- TGI (U251 CNS): > 100 µM
- TGI (K-562 leukemia): > 100 µM
- TGI (HCT-116 colon): > 100 µM
- TGI (SK-OV-3 ovarian): > 100 µM
- TGI (HCT-15 colon): > 100 µM
- TGI (MCF7 breast): > 100 µM
- TGI (HT29 colon): > 100 µM
- TGI (HS 578T breast): > 100 µM
- TGI (SNB-19 CNS): > 100 µM
- TGI (PC-3 prostate): > 100 µM
- TGI (HL-60(TB) leukemia): > 100 µM
- TGI (ACHN renal): > 100 µM
- TGI (MALME-3M melanoma): > 100 µM
- TGI (IGROV1 ovarian): > 100 µM
- TGI (SK-MEL-5 melanoma): > 100 µM
- TGI (MDA-MB-231 breast): > 100 µM
- TGI (SF-268 CNS): > 100 µM
- TGI (CAKI-1 renal): > 100 µM

Reference: PubChem BioAssay (NCI)
